Assay results as given in patent US11427548B2 (Arvinas Operations, Inc., priority 2015, dated 2022).

Columns and labels:
[1] = biological target: T1, Androgen Receptor (Homo sapiens, UniProt P10275+P40337, T878A); assay: Androgen Receptor ELISA assay (PathScan AR ELISA) in LNCaP cells: AR degradation, Dmax and DC50; type: cell-based; settings: for DC50: concentration that caused 50% Androgen Receptor degradation; for Dmax: highest percentage of Androgen Receptor degradation observed
T1 construct: Compounds have been evaluated in this assay in LNCaP and/or VCaP cells utilizing similar protocols; endogenous in cells; host or cells: LNCaP cells
T1 sequence (P10275 whole entry T878A): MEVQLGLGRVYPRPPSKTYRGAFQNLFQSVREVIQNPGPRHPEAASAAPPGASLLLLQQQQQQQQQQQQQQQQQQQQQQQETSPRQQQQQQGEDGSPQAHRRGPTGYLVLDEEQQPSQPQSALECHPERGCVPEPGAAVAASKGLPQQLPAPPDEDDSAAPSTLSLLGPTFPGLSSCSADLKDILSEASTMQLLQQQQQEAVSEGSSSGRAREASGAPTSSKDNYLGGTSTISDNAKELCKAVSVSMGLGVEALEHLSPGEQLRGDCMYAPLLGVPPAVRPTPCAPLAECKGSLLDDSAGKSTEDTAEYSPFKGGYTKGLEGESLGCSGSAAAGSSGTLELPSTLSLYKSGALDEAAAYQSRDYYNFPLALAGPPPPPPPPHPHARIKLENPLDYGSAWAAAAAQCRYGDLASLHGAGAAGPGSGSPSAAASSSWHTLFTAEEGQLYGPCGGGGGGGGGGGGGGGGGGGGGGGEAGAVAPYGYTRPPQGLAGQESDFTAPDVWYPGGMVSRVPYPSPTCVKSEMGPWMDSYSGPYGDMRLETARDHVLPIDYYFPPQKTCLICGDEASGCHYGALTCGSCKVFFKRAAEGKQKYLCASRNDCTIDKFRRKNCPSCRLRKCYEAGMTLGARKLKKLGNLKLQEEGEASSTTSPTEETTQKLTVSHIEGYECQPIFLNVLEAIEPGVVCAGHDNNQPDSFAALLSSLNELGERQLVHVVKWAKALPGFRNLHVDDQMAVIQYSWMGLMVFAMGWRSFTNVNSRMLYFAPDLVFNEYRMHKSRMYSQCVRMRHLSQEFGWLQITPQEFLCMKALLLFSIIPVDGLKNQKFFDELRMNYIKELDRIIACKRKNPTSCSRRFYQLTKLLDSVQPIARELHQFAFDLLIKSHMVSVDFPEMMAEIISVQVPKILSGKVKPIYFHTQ
T1 sequence (P40337 whole entry): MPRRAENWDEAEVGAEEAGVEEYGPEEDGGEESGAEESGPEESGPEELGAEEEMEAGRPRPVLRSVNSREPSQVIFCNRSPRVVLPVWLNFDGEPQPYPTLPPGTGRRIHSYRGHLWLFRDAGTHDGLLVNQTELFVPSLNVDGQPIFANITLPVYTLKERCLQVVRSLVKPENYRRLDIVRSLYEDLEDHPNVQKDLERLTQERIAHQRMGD
T1 sequence (Q15369 whole entry partner): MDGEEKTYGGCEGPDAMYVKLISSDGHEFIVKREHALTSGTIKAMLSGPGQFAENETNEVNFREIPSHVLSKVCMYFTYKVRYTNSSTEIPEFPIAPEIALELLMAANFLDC
T1 sequence (Q15370 whole entry partner): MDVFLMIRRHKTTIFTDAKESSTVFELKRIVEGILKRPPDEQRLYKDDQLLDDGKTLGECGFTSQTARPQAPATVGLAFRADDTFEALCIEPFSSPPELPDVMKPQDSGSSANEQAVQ

[2] = biological target: T2, Androgen Receptor (Homo sapiens, UniProt P10275); assay: Androgen Receptor ELISA assay (PathScan AR ELISA) in VCaP cells: AR degradation, Dmax and DC50; type: cell-based; settings: for Dmax: VCaP, read-out: VCaP Dmax (%); for DC50: read-out: VCaP DC50, concentration that caused 50% Androgen Receptor degradation, VCaP cells
T2 construct: endogenous in cells; host or cells: VCaP cells
T2 sequence (P10275 1-920): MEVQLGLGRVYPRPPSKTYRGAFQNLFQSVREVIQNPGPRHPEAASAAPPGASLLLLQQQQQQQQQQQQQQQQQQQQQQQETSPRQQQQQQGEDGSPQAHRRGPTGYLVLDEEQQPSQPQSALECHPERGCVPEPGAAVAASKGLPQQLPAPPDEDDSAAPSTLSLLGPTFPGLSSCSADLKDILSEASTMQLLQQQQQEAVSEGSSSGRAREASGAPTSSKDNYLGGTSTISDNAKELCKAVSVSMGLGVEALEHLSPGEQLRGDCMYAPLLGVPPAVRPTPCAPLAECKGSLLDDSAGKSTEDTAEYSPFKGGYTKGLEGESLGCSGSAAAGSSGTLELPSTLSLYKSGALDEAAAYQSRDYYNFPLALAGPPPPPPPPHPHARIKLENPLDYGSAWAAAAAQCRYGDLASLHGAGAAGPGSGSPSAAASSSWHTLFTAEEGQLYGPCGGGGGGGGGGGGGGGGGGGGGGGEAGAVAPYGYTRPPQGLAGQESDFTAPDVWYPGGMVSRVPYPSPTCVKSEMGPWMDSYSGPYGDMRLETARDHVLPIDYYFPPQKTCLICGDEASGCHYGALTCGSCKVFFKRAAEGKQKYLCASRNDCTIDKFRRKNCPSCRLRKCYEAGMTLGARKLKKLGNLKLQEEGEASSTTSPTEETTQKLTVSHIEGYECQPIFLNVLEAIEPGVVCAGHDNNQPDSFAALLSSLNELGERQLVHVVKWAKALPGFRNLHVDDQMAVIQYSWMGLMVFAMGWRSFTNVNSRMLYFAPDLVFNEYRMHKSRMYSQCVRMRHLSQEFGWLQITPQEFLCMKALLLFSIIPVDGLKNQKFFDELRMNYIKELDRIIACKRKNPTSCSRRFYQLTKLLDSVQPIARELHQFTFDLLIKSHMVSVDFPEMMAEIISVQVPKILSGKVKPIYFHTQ
In short: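 VCaP cells, 30,000/well, grown ≥3 days in phenol red-free RPMI with 5% charcoal-stripped FBS; compound added in 0.1% DMSO with 0.1 nM R1881, 7 half-log doses, 24 h. Lysate AR quantified by PathScan sandwich ELISA, HRP/TMB read at 450 nm, giving DC50 and Dmax.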

| SMILES | DC50 [1] | Dmax [1] | Dmax [2] | DC50 [2] |
| --- | --- | --- | --- | --- |
| Cc1ncsc1-c1ccc(CNC(=O)[C@@H]2C[C@@H](O)CN2C(=O)[C@@H](NC(=O)CCCOCC#CC#CCOc2ccc(N3C(=S)N(c4ccc(C#N)c(C(F)(F)F)c4)C(=O)C3(C)C)cc2)C(C)(C)C)cc1 [Example 56, (2S,4R)-1-[(2S)-2-(4-{[6-(4-{3-[4-cyano-3-(trifluoromethyl)phenyl]-5,5-dimethyl-4-oxo-2-sulfanylideneimidazolidin-1-yl}phenoxy)hexa-2,4-diyn-1-yl]oxy}butanamido)-3,3-dimethylbutanoyl]-4-hydroxy-N-{[4-(4-methyl-1,3-thiazol-5-yl)phenyl]methyl}pyrrolidine-2-carboxamide] | > 501 nM | 26 to 50% | < 25% | – |
| Cc1ncsc1-c1ccc(CNC(=O)[C@@H]2C[C@@H](O)CN2C(=O)[C@@H](NC(=O)COCCCCCNC(=O)CCCc2ccc(N3C(=S)N(c4ccc(C#N)c(C(F)(F)F)c4)C(=O)C3(C)C)cc2)C(C)(C)C)cc1 [Example 63, (2S,4R)-1-[(2S)-2-[2-({5-[4-(4-{3-[4-cyano-3-(trifluoromethyl)phenyl]-5,5-dimethyl-4-oxo-2-sulfanylideneimidazolidin-1-yl}phenyl)butanamido]pentyl}oxy)acetamido]-3,3-dimethylbutanoyl]-4-hydroxy-N-{[4-(4-methyl-1,3-thiazol-5-yl)phenyl]methyl}pyrrolidine-2-carboxamide] | 51 to 500 nM | > 71% | 26 to 50% | < 50 nM |
| Cc1ncsc1-c1ccc(CNC(=O)[C@@H]2C[C@@H](O)CN2C(=O)[C@@H](NC(=O)COCCCCCN(C)C(=O)CCCc2ccc(N3C(=S)N(c4ccc(C#N)c(C(F)(F)F)c4)C(=O)C3(C)C)cc2)C(C)(C)C)cc1 [Example 65, (2S,4R)-1-[(2S)-2-[2-({5-[4-(4-{3-[4-cyano-3-(trifluoromethyl)phenyl]-5,5-dimethyl-4-oxo-2-sulfanylideneimidazolidin-1-yl}phenyl)-N-methylbutanamido]pentyl}oxy)acetamido]-3,3-dimethylbutanoyl]-4-hydroxy-N-{[4-(4-methyl-1,3-thiazol-5-yl)phenyl]methyl}pyrrolidine-2-carboxamide] | 51 to 500 nM | 51 to 70% | 51 to 70% | < 50 nM |
| Cc1ncsc1-c1ccc(CNC(=O)[C@@H]2C[C@@H](O)CN2C(=O)[C@@H](NC(=O)OCCOCCOc2ccc(-c3ccc(N4C(=S)N(c5ccc(C#N)c(C(F)(F)F)c5)C(=O)C4(C)C)cc3)cc2)C(C)(C)C)cc1 [Example 66, 2-(2-(4′-(3-(4-cyano-3-(trifluoromethyl)phenyl)-5,5-dimethyl-4-oxo-2-thioxoimidazolidin-1-yl)biphenyl-4-yloxy)ethoxy)ethyl (S)-1-((2S,4R)-4-hydroxy-2-(4-(4-methylthiazol-5-yl)benzylcarbamoyl)pyrrolidin-1-yl)-3,3-dimethyl-1-oxobutan-2-ylcarbamate] | 51 to 500 nM | 51 to 70% | 26 to 50% | 51 to 500 nM |
| Cc1ncsc1-c1ccc(CNC(=O)[C@@H]2C[C@@H](O)CN2C(=O)[C@@H](NC(=O)COCCOCCOc2ccc(-c3ccc(N4C(=S)N(c5ccc(C#N)c(C(F)(F)F)c5)C(=O)C4(C)C)cc3)cc2)C(C)(C)C)cc1 [Example 67, (2S,4R)-1-((S)-2-(2-(2-(2-(4′-(3-(4-cyano-3-(trifluoromethyl)phenyl)-5,5-dimethyl-4-oxo-2-thioxoimidazolidin-1-yl)biphenyl-4-yloxy)ethoxy)ethoxy)acetamido)-3,3-dimethylbutanoyl)-4-hydroxy-N-(4-(4-methylthiazol-5-yl)benzyl)pyrrolidine-2-carboxamide] | < 50 nM | > 71% | 26 to 50% | < 50 nM |
| Cc1ncsc1-c1ccc(CNC(=O)[C@@H]2C[C@@H](O)CN2C(=O)[C@@H](NC(=O)CCCCOc2ccc(-c3ccc(N4C(=S)N(c5ccc(C#N)c(C(F)(F)F)c5)C(=O)C4(C)C)cc3)cc2)C(C)(C)C)cc1 [Example 69, (2S,4R)-1-[(2S)-2-{5-[4-(4-{3-[4-cyano-3-(trifluoromethyl)phenyl]-5,5-dimethyl-4-oxo-2-sulfanylideneimidazolidin-1-yl}phenyl)phenoxy]pentanamido}-3,3-dimethylbutanoyl]-4-hydroxy-N-{[4-(4-methyl-1,3-thiazol-5-yl)phenyl]methyl}pyrrolidine-2-carboxamide] | 51 to 500 nM | > 71% | 26 to 50% | 51 to 500 nM |
| Cc1ncsc1-c1ccc(CNC(=O)[C@@H]2C[C@@H](O)CN2C(=O)[C@@H](NC(=O)CCOCCOc2ccc(-c3ccc(N4C(=S)N(c5ccc(C#N)c(C(F)(F)F)c5)C(=O)C4(C)C)cc3)cc2)C(C)(C)C)cc1 [Example 70, (2S,4R)-1-[(2S)-2-(3-{2-[4-(4-{3-[4-cyano-3-(trifluoromethyl)phenyl]-5,5-dimethyl-4-oxo-2-sulfanylideneimidazolidin-1-yl}phenyl)phenoxy]ethoxy}propanamido)-3,3-dimethylbutanoyl]-4-hydroxy-N-{[4-(4-methyl-1,3-thiazol-5-yl)phenyl]methyl}pyrrolidine-2-carboxamide] | < 50 nM | > 71% | 26 to 50% | < 50 nM |
| Cc1ncsc1-c1ccc(CNC(=O)[C@@H]2C[C@@H](O)CN2C(=O)[C@@H](NC(=O)COCCCCCOc2ccc(-c3ccc(N4C(=S)N(c5ccc(C#N)c(C(F)(F)F)c5)C(=O)C4(C)C)cc3)cc2)C(C)(C)C)cc1 [Example 71, (2S,4R)-1-[(2S)-2-[2-({5-[4-(4-{3-[4-cyano-3-(trifluoromethyl)phenyl]-5,5-dimethyl-4-oxo-2-sulfanylideneimidazolidin-1-yl}phenyl)phenoxy]pentyl}oxy)acetamido]-3,3-dimethylbutanoyl]-4-hydroxy-N-{[4-(4-methyl-1,3-thiazol-5-yl)phenyl]methyl}pyrrolidine-2-carboxamide] | < 50 nM | > 71% | 51 to 70% | < 50 nM |
| Cc1ncsc1-c1ccc(CNC(=O)[C@@H]2C[C@@H](O)CN2C(=O)[C@@H](NC(=O)COCCOCCOc2ccc(-c3ccc(N4C(=S)N(c5ccc(C#N)c(C(F)(F)F)c5)C(=O)C4(C)C)cc3F)cc2)C(C)(C)C)cc1 [Example 73, (2S,4R)-1-[(2S)-2-[2-(2-{2-[4-(4-{3-[4-cyano-3-(trifluoromethyl)phenyl]-5,5-dimethyl-4-oxo-2-sulfanylideneimidazolidin-1-yl}-2-fluorophenyl)phenoxy]ethoxy}ethoxy)acetamido]-3,3-dimethylbutanoyl]-4-hydroxy-N-{[4-(4-methyl-1,3-thiazol-5-yl)phenyl]methyl}pyrrolidine-2-carboxamide] | < 50 nM | > 71% | 51 to 70% | < 50 nM |
| Cc1ncsc1-c1ccc(CNC(=O)[C@@H]2C[C@@H](O)CN2C(=O)[C@@H](NC(=O)OCCCCCOc2ccc(-c3ccc(N4C(=S)N(c5ccc(C#N)c(C(F)(F)F)c5)C(=O)C4(C)C)cc3)cc2)C(C)(C)C)cc1 [Example 74, 5-[4-(4-{3-[4-cyano-3-(trifluoromethyl)phenyl]-5,5-dimethyl-4-oxo-2-sulfanylideneimidazolidin-1-yl}phenyl)phenoxy]pentyl N-[(2S)-1-[(2S,4R)-4-hydroxy-2-({[4-(4-methyl-1,3-thiazol-5-yl)phenyl]methyl}carbamoyl)pyrrolidin-1-yl]-3,3-dimethyl-1-oxobutan-2-yl]carbamate] | < 50 nM | > 71% | 26 to 50% | < 50 nM |
| Cc1ncsc1-c1ccc(CNC(=O)[C@@H]2C[C@@H](O)CN2C(=O)[C@@H](NC(=O)COCCCOc2ccc(-c3ccc(N4C(=S)N(c5ccc(C#N)c(C(F)(F)F)c5)C(=O)C4(C)C)cc3)cc2)C(C)(C)C)cc1 [Example 77] | < 50 nM | > 71% | 51 to 70% | < 50 nM |
| Cc1ncsc1-c1ccc(CNC(=O)[C@@H]2C[C@@H](O)CN2C(=O)[C@@H](NC(=O)COCCOc2ccc(-c3ccc(N4C(=S)N(c5ccc(C#N)c(C(F)(F)F)c5)C(=O)C4(C)C)cc3)cc2)C(C)(C)C)cc1 [Example 78] | < 50 nM | > 71% | 51 to 70% | < 50 nM |
